From publication PMC12326358, “Effect of Quantitative Structural Properties and Drug Formulation in Four Cannabinoids (Cannabidiol, Cannabigerol, Cannabichromene, and Cannabinol) on Their Lymphatic Transport after Enteral Administration in Rats” (Molecular Pharmaceutics, 2025)
Where “and” joins values, the source holds several entries; their conditions need not be identical. Equal entries are not always repeated. Entries after “also recorded” stand apart in the source; their conditions may differ. Where two headings read alike, the source gives them in different places.

Legend:
[1] = Lymphatic transport studies in anesthetized mesenteric lymph duct cannulated rats; conditions: for FRL, relative bioavailability via lymph / bioavailability / Kp: intraduodenal, mean ± SD; for FRL, relative bioavailability via lymph: FRL=FAL/F; for bioavailability: F, total absolute bioavailability, sum of FAL and FAP; for Kp: Lymph/serum AUC ratio
Experimental: Anesthetized mesenteric lymph duct cannulated rat model was used for the lymphatic transport measurement as previously described with slight modifications. Briefly, rats were left on normal diet and given 1 mL of olive oil 1 h prior to the surgery to visualize the mesenteric lymph (milky white color). They were anesthetized with intramuscular xylazine 5 mg/kg and ketamine 100 mg/kg after a rapid isoflurane induction. A transverse laparotomy was performed. […] The catheter was fixed in place with two to three drops of tissue adhesive (Histoacryl, B. Braun Surgical, S.A., Spain). A duodenal catheter was also placed (polyethylene, 0.97 mm O.D., 0.58 mm I.D.) via a small duodenotomy and fixed with tissue adhesive. The abdominal wall was sutured in two layers, with both catheters leaving the abdominal cavity through the right flank. At the end of the procedure, the right jugular vein was cannulated for blood sampling.
The rats were then placed on heated pads and covered with blankets to prevent heat loss. Cannabinoids in oil solution or nanoemulsion were then dosed slowly via duodenal catheter over 30 min. The administered dose was 10 mg of CBD and 15 mg of CBG, CBC and CBN (volume 1 mL). Whole lymph was collected in regularly changed Eppendorf tubes from the time the dosing started. When the dosing was finished, continuous hydration with normal saline at a rate of 3 mL/h intraduodenally followed using an infusion pump (Perfusor compactplus, B. Braun Melsungen AG, Germany). Anesthesia was maintained throughout the rest of the experiment and additional ketamine intramuscular boluses were given whenever necessary. Eppendorf tubes were changed hourly and systemic blood was drawn at the same time points. Blood samples were centrifuged (4500 rpm for 10 min) and serum was extracted. Lymph volume was measured gravimetrically and the samples were further processed without additional adjustment. All samples were stored in −80 °C until analysis. Laboratory was unaware of animal assignment to the particular experimental groups (laboratory blinding).
Serum and lymph concentrations in all studies were dose-normalized to 1 mg/kg prior to further calculations. AUC values were determined using linear trapezoidal rule. Exact actual sampling times were used for this purpose. Scheduled sampling times were used for mean concentration plotting in the graphs. PK-solver add-on for MS Excel was used for all basic pharmacokinetic calculations. GraphPad Prism version 10.2.2 (GraphPad Software, San Diego, CA, USA) was used for all statistical analyses and graph plotting. Unpaired Student’s t test was used to compare pharmacokinetic and lymphatic transport parameters between the experimental groups. Level of significance was set to p < 0.05.
Lymphatic transport parameters were defined and calculated as previously described. , Briefly, absolute bioavailability via lymph (FAL) was defined as percentage of administered drug dose absorbed into the lymph. It was determined directly from lymph volume and drug concentration in lymph duct cannulated rats. Absolute bioavailability via portal vein (FAP) was analogically defined as percentage of administered drug dose reaching the systemic circulation after direct absorption into blood. It was calculated using equation 1 FAP=AUCent/AUCiv where AUCent is the area under the dose-normalized blood concentration–time curve after enteral dosing in lymph duct cannulated (i.e., lymph deprived) rats and AUCiv is the respective parameter in a separate intravenously dosed group. Total absolute bioavailability (F) in lymph duct cannulated rats was calculated as a sum of FAL and FAP. In normal animals with no lymph duct cannulation, F was calculated using standard formula for oral bioavailability: 2 F=AUCpo/AUCiv Relative bioavailability via lymph (FRL) was defined as the percentage of systemically available drug that was absorbed via lymph. It was calculated using the equation 3 FRL=FAL/F

[2] = Log P measurement, octanol–water system; assay type: physicochemical
Experimental: There are only calculated log P values available for CBD, CBG, CBC and CBN (range 6.1–7.4). Therefore, log P was measured experimentally for all four cannabinoids during this study. The partition coefficient describes the distribution of a tested compound in a two-phase octanol–water system. It is defined as a ratio of concentrations of the un-ionized compound in octanol and water at equilibrium. Cannabinoids were weighed (2 mg) and dissolved in 2.5 mL of octanol, followed by the addition of 2.5 mL of deionized water. The mixture was shaken for 2 h and then allowed to separate for 24 h. Twenty μL of the aqueous (bottom) phase was transferred into an LC vial, diluted with 60 μL of an appropriate IS at a concentration of 30 ng/mL, and analyzed using the aforementioned UHPLC-MS/MS method. The experiment was repeated five times for each cannabinoid.
Due to the highly lipophilic character of cannabinoids, their concentration in the organic phase is several orders of magnitude higher than the concentration in the aqueous phase. As a result, the difference in the total amount of cannabinoids and the amount present in the organic phase is very small and falls within the experimental error of the analytical method. Therefore, log P values were calculated based on the measured cannabinoid concentration in the aqueous phase, while the concentration in the octanol phase was calculated from the initial amount of the cannabinoid used and its measured concentration in the aqueous phase. […] Due to the very low concentrations of CBD and CBC in the aqueous phase, which fell below the LOQ of both methods, we were unable to determine the log P for these two cannabinoids.

[3] = man, cited from earlier work
[4] = cited from earlier work; for absolute oral bioavailability: species not printed at place, ref reports published so far
[5] = design: method as in published earlier (Table 1 footnote a); conditions: nanoemulsion, IV, rats, 1 mg CBD, mean ± SD, ref published earlier (Table 1 footnote a), cited from earlier work
[6] = dogs, oral; cited from earlier work
[7] = nanoemulsion compared to oil solution, lymph duct-cannulated rats
[8] = nanoemulsion, lymph duct-cannulated rats
[9] = oil solution, lymph duct-cannulated rats
[10] = rat, in vivo, nanoemulsion, lymph duct-cannulated rats
[11] = rat, in vivo, oil solution, lymph duct-cannulated rats
[12] = octanol–water, from measured aqueous phase concentration, lower bounds based on LOQ, n = 5, read-out: Log P

Row | SMILES | drop of relative bioavailability via lymph (FRL) [1, 7] | increase in absolute bioavailability via lymph (FAL) [1, 7] | increase in absolute bioavailability via portal vein (FAP) [1, 7] | FRL, relative bioavailability via lymph [1, 8] | FRL, relative bioavailability via lymph [1, 9] | bioavailability [1, 10] | bioavailability [1, 11] | Kp [1, 10] | Kp [1, 11] | logP [2, 12] | other results
1 | CCCCCc1cc(O)c2c(c1)OC(C)(CCC=C(C)C)C=C2 (centres unmarked) [CBC, cannabichromene] | did not reach statistical significance | 3 fold | 8 fold | 47% and 47 ± 14% | 63 ± 17% | 29 ± 7% | 6.6 ± 3.9% | 530 ± 239 | 1260 ± 676 | > 6.7 | Tmax ([3]; oral administration): 2 to 4 h
2 | C=C(C)[C@@H]1CCC(C)=C[C@H]1c1c(O)cc(CCCCC)cc1O [CBD, cannabidiol] | 74% | did not increase; also recorded: no increase | 11 fold | 13% and 13 ± 8 % | 50 ± 12% | 24 ± 9% | 4 ± 1.5% | 100 ± 60 | 699 ± 333 | > 6.3 | oral bioavailability ([3]; estimated): < 10%; bioavailability increase when taken with food ([3]; oral): up to 4 fold; oral bioavailability ([4]; rats, lipid-free formulation): 8.5% and 8%; oral bioavailability ([4]; rats, long-chain triglycerides-based formulation): 22%; absolute oral bioavailability ([4]; sunflower oil-based microemulsion): 25%; absolute oral bioavailability ([4]; sunflower oil): 14%; AUC(0-inf) ([5]; dose-normalized to 1 mg/kg): 623 ± 141 ng·h/mL; T1/2 [5]: 2.5 ± 0.5 h; Vss [5]: 2.9 ± 1.1 L/kg; Cmax ([5]; serum, dose-normalized to 1 mg/kg): 845 ± 253 ng/mL
3 | CCCCCc1cc(O)c(C/C=C(\C)CCC=C(C)C)c(O)c1 [CBG, cannabigerol] |  |  |  |  |  |  |  |  |  |  | drop of relative bioavailability via lymph (FRL) ([1]; rat, in vivo): 75%; increase in absolute bioavailability via lymph (FAL) ([1]; rat, in vivo): 8 fold; increase in absolute bioavailability via portal vein (FAP) ([1]; rat, in vivo): 71 fold; logP [2]: 7.2; average Tmax [6]: 0.75 h
4 | CCCCCc1cc(O)c2c(c1)OC(C)(C)c1ccc(C)cc1-2 [CBN, cannabinol] | 48% | 3 fold | 13 fold | 36% and 36 ± 20 % | 69 ± 13% | 29 ± 10% | 5.3 ± 2% | 274 ± 231 | 976 ± 519 | 6.2 | Tmax ([4]; rats, oral administration): 1.5 to 3 h
